# Assay results as given in US8946195B2, “Bicyclic methyl amine derivatives as sphingosine-1 phosphate receptors modulators” (Allergan, Inc., priority 2011, dated 2015).
# Molecular target: T1, human S1P1 receptor (Homo sapiens, UniProt P21453)
# T1 construct: expressed in transfected cells; membranes used
# Test: GTP γ35S binding assay for S1P1 activity
# Format: biochemical
# Settings: membranes of cells stably expressing the S1P1 receptor, agonist potency
# Method: Compounds were synthesized and tested for S1P1 activity using the GTP γ^35S binding assay. These compounds may be assessed for their ability to activate or block activation of the human S1P1 receptor in cells stably expressing the S1P1 receptor.
# GTP γ35S binding was measured in the medium containing (mM) HEPES 25, pH 7.4, MgCl2 10, NaCl 100, dithitothreitol dithitothreitol 0.5, digitonin 0.003%, 0.2 nM GTP γ35S, and 5 μg membrane protein in a volume of 150 μl. Test compounds were included in the concentration range from 0.08 to 5,000 nM unless indicated otherwise. Membranes were incubated with 100 μM 5′-adenylylimidodiphosphate adenylylimmidodiphosphate for 30 min, and subsequently with 10 μM GDP for 10 min on ice. Drug solutions and membrane were mixed, and then reactions were initiated by adding GTP γ35S and continued for 30 min at 25° C. Reaction mixtures were filtered over Whatman GF/B filters under vacuum, and washed three times with 3 mL of ice-cold buffer (HEPES 25, pH7.4, MgCl2 10 and NaCl 100). Filters were dried and mixed with scintillant, and counted for 35S activity using a β-counter. Agonist-induced GTP γ35S binding was obtained by subtracting that in the absence of agonist. Binding data were analyzed using a non-linear regression method. In case of antagonist assay, the reaction mixture contained 10 nM […] in the presence of test antagonist at concentrations ranging from 0.08 to 5000 nM.
# T1 sequence (P21453 whole entry): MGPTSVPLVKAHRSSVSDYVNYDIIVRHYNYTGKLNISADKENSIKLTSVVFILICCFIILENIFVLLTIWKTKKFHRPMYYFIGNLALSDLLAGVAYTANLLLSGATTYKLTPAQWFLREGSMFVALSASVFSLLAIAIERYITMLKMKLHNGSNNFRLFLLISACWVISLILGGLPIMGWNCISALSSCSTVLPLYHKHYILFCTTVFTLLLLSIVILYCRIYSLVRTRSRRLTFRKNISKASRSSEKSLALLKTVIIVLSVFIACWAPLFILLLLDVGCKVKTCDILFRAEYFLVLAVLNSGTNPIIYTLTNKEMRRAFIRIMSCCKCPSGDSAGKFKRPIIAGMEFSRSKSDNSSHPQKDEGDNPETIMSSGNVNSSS
row,SMILES,EC50 [nM]
1,"CCCCCCc1ccc(-c2ccc(CNCCCP(=O)(O)O)c3c2CCC3)cc1 [Compound 1, [3-({[7-(4-hexylphenyl)-2,3-dihydro-1H-inden-4-yl]methyl}amino)propyl]phosphonic acid]",37.1
2,"CCCCCCc1ccc(-c2ccc(CNCCCP(=O)(O)O)c3occc23)cc1 [Compound 2, [3-({[4-(4-hexylphenyl)-1-benzofuran-7-yl]methyl}amino)propyl]phosphonic acid]",170
3,"CCCCCCc1ccc(-c2ccc(CNCCCP(=O)(O)O)c3ccoc23)cc1 [Compound 3, [3-({[7-(4-hexylphenyl)-1-benzofuran-4-yl]methyl}amino)propyl]phosphonic acid]",44.4
